Experimental data: ChEMBL document CHEMBL1201862, “PubChem BioAssay data set” (2004)
The source made the active and inactive calls.

Assays:
[1] = inhibitors of firefly luciferase expression or activity, dose response, H4 neuroglioma cells, luminescence (AID 1990); type: functional, cell-based
[2] = Luminescence Cell-Based Dose Response HTS to Identify Inhibitors of 5'UTR Stem-Loop Driven Prion Protein mRNA Translation in H4 Neuroglioblastoma Cells. [Related pubchem assays: 1827 (Project Summary), 1813 (Primary HTS)]; type: functional
[3] = inhibitors of SNCA 5'UTR-driven reporter translation, confirmation, H4 neuroglioma cells, luminescence (AID 1988); type: functional, cell-based
[4] = inhibitors of Vif binding to APOBEC3G peptide, primary screen, biochemical, TR-FRET, GST-Vif 1-94, biotin-A3G peptide, dose response retest (AID 1117319); type: functional;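 further: TR-FRET signal of purified GST-Vif binding a biotinylated A3G peptide; inhibitors lower the FRET signal by blocking Vif and A3G binding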
[5] = biological target: NAD-dependent protein deacylase sirtuin-5, mitochondrial (Homo sapiens, UniProt Q9NXA8); test: SIRT5 desuccinylase inhibitors, dose response, biochemical, fluorescence imaging, cherry-pick, set 5 (AID 720591);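 further: desuccinylation of succinyl peptide AMC substrate read as fluorescence after trypsin release; potency of inhibitors that lower fluorescence and may act on trypsin instead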
[6] = P. falciparum 3D7-ScDHODH growth inhibitors, dose response, SYBR Green, dry powder samples (AID 1159570); type: functional, cell-based;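 further: parasite growth measured after 72 hours of compound exposure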
[7] = P. falciparum Dd2 growth inhibitors, dose response, SYBR Green, dry powder samples, set 9 (AID 1159568); type: functional, cell-based
[8] = P. falciparum Dd2 growth inhibitors, dose response, SYBR Green, cherry-picked samples (AID 1159567); type: functional, cell-based
[9] = P. falciparum Dd2 growth inhibitors, dose response, SYBR Green, dry powder samples (AID 1159566); type: functional, cell-based;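 further: potency for growth inhibition with lower SYBR green DNA signal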
[10] = Plasmodium falciparum Dd2 Sybr green parasite growth Measured in Cell-Based and Microorganism Combination System Using Plate Reader - 2153-01_Inhibitor_Dose_DryPowder_Activity_Set3.; type: functional
[11] = P. falciparum ATP4 D1247Y mutant growth inhibitors, dose response, NITD609-resistant line, SYBR Green, dry powder (AID 1159571); type: functional, cell-based;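 further: parasites synchronized at ring stage by sorbitol before testing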
[12] = biological target: Serine/threonine-protein phosphatase PP1-alpha catalytic subunit (Homo sapiens, UniProt P62136); test: PP1 phosphatase inhibitors, dose response, biochemical, fluorescence (AID 2403);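 further: phosphatase turnover of OMFP into fluorescent 3-O-methylfluorescein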
[13] = microbe, parasite or virus in culture; type: functional; conditions: Mycobacterium tuberculosis
[14] = biological target: Serine/threonine-protein phosphatase (Homo sapiens, UniProt Q9BPW0); test: Counterscreen for inhibitors of PP1: fluorescence-based biochemical high throughput dose response assay to identify inhibitors of Protein Phosphatase 5 (PP5). [Related pubchem assays: 2034 (Summary (PP5 inhibitors)), 1987 (PP5 inhibitors in singlate), 2235 (PP1 inhibitors in singlate)]
[15] = Artemis endonuclease inhibitor potency, dose response, biochemical, fluorescence intensity (AID 720701); type: functional;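 further: Artemis endonuclease enzyme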
[16] = biological target: Cytochrome P450 2C9 (Homo sapiens, UniProt P11712)
[17] = biological target: Peroxisome proliferator-activated receptor gamma/Nuclear receptor coactivator 1 (Homo sapiens, UniProt P37231); test: (§1) TR-FRET dose response biochemical High Throughput Screening assay for agonists of the steroid receptor coactivator 1 (SRC-1) recruitment by the peroxisome proliferator-activated receptor gamma (PPAR gamma): non-selective agonists. [Related pubchem assays (depositor defined):AID1300, AID1808, AID504735, AID631]; type: protein assay
[18] = biological target: Ubiquitin carboxyl-terminal hydrolase BAP1 (Homo sapiens, UniProt Q92560); test: BAP1 deubiquitinase inhibitors, dose response, biochemical (AID 714); type: functional
[19] = biological target: Peroxisome proliferator-activated receptor gamma/Nuclear receptor coactivator 3 (Homo sapiens, UniProt P37231); test: as §1, with “3 (SRC-3)” for “1 (SRC-1)”, “assays: 1301 (Confirmation screen.), 1048 (Primary screen.)]” for “assays (depositor defined):AID1300, AID1808, AID504735, AID631]”; type: functional
[20] = biological target: Peroxisome proliferator-activated receptor gamma/Nuclear receptor coactivator 2 (Homo sapiens, UniProt P37231); test: TR-FRET dose response biochemical High Throughput Screening assay for agonists of the steroid receptor coactivator 2 (SRC-2) recruitment by the peroxisome proliferator-activated receptor gamma (PPAR gamma): non-selective agonists. [Related pubchem assays: 1297, 1032 ]; type: functional
[21] = THP-1 cell cytotoxicity, dose response, cytotoxicity control for Vif-APOBEC3G degradation inhibitor project, THP-1 cells (AID 1117359); type: functional; conditions: Human immunodeficiency virus 1, THP-1
[22] = Dose-response inhibition of insulin secretion in a rat insulinoma line at 5 mM glucose (AID 1117331); type: functional, cell-based; conditions: INS-1E
[23] = cells; type: functional, cell-based; conditions: INS-1E
[24] = Concentration-dependent survival of SW480 colon cancer line, luminescence detection with CellTiter-Glo, half-maximal inhibitory concentration (AID 1117338); type: functional
[25] = RKO cell viability reduction, dose response, CellTiter-Glo luminescence (AID 1117322); type: functional
[26] = cytotoxicity toward HCT116 cells – cell-based, CellTiter-Glo luminescence, IC50, dose response (AID 1117332); type: functional; conditions: HCT-116
[27] = SNU-C1 cell viability reduction, dose response, CellTiter-Glo luminescence (AID 1117323); type: functional, cell-based
[28] = half-maximal inhibitory concentration for glucagon-like peptide-1 release, STC-1 cell line, dose-response (AID 1117345); type: functional, cell-based
[29] = cytotoxicity toward Colo320 cells – cell-based, CellTiter-Glo luminescence, IC50, dose response (AID 1117334); type: functional; conditions: COLO 320
[30] = cytotoxicity toward HT-29 cells – cell-based, CellTiter-Glo luminescence, IC50, dose response (AID 1117330); type: functional
[31] = CellTiter-Glo luminescent dose response of DLD-1 viability loss (AID 1117352); type: functional
[32] = HCT116 cell viability decrease, GSK3B pretreatment – CellTiter-Glo, IC50, dose response (AID 1117339); type: functional; conditions: HCT-116
[33] = Glucagon-like peptide 1 release potency, NCI-H716 cell line, dose-response, half-maximal inhibitory concentration (AID 1117344); type: functional, cell-based
[34] = intracellular Trypanosoma cruzi inhibitors in host cells – cell-based, plate reader, cherry-pick samples, set 3, dose response (AID 651818); type: functional;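 further: compounds incubated with infected cells for about four days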
[35] = biological target: Paired box protein Pax-8 (Homo sapiens, UniProt Q06710); test: inhibitors of PAX8-driven TPO luciferase reporter, dose response, RMG-I cells, cherry-pick (AID 687027); type: functional, cell-based;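 further: luciferase reporter driven by Pax8 target thyroperoxidase promoter measured by SteadyGlo luminescence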
[36] = PAX2 cell-based inhibition, dose response, selectivity assay for PAX8 inhibitor project, plate reader, dry powder samples (AID 743048); type: functional;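 further: HEK293 cells carrying a WT1 promoter luciferase reporter driven by expressed Pax2; potency is for inhibition of Pax2 driven reporter signal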
[37] = NIH:OVCAR-3 ovarian cancer cell cytotoxicity, dose response, PAX8 inhibitor project, plate reader, dry powder samples (AID 743044); type: functional, cell-based
[38] = PAX5 activity inhibitors, dose response, selectivity assay for PAX8 inhibitor project, cell-based, plate reader, dry powder samples (AID 743047); type: functional;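 further: HEK293 cells carrying a Pax5 driven CD19 promoter luciferase reporter; potency of inhibitors that lower reporter luminescence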
[39] = cytotoxicity in OVCAR4 cells, dose response, cytotoxicity control for PAX8 inhibitor project, cell-based, plate reader, dry powder, SA11 (AID 743150); type: functional; conditions: OVCAR-4
[40] = cytotoxicity in OV-90 ovarian cancer cells, dose response, PAX8 inhibitor project, cell-based, plate reader, dry powder, SA8 (AID 743149); type: functional
[41] = cytotoxicity dependent on PAX8, dose response, cell-based, plate reader, dry powder (AID 743049); type: functional

Peroxisome proliferator-activated receptor gamma/Nuclear receptor coactivator 3, sequence (P37231 whole entry): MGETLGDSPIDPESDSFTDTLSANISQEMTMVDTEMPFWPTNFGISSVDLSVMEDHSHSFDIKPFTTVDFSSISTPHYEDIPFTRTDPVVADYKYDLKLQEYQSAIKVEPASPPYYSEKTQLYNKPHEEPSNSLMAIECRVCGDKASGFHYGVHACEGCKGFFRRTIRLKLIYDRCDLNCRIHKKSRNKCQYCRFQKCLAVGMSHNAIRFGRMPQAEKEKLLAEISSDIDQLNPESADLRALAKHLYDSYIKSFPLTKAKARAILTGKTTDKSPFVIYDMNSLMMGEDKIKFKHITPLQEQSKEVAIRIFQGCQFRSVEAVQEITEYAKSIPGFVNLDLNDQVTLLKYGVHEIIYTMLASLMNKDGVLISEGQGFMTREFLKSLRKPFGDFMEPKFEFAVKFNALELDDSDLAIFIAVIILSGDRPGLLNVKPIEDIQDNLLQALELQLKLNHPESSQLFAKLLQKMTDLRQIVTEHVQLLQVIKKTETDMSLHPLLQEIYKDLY
Peroxisome proliferator-activated receptor gamma/Nuclear receptor coactivator 3, sequence (Q9Y6Q9 whole entry, further chain): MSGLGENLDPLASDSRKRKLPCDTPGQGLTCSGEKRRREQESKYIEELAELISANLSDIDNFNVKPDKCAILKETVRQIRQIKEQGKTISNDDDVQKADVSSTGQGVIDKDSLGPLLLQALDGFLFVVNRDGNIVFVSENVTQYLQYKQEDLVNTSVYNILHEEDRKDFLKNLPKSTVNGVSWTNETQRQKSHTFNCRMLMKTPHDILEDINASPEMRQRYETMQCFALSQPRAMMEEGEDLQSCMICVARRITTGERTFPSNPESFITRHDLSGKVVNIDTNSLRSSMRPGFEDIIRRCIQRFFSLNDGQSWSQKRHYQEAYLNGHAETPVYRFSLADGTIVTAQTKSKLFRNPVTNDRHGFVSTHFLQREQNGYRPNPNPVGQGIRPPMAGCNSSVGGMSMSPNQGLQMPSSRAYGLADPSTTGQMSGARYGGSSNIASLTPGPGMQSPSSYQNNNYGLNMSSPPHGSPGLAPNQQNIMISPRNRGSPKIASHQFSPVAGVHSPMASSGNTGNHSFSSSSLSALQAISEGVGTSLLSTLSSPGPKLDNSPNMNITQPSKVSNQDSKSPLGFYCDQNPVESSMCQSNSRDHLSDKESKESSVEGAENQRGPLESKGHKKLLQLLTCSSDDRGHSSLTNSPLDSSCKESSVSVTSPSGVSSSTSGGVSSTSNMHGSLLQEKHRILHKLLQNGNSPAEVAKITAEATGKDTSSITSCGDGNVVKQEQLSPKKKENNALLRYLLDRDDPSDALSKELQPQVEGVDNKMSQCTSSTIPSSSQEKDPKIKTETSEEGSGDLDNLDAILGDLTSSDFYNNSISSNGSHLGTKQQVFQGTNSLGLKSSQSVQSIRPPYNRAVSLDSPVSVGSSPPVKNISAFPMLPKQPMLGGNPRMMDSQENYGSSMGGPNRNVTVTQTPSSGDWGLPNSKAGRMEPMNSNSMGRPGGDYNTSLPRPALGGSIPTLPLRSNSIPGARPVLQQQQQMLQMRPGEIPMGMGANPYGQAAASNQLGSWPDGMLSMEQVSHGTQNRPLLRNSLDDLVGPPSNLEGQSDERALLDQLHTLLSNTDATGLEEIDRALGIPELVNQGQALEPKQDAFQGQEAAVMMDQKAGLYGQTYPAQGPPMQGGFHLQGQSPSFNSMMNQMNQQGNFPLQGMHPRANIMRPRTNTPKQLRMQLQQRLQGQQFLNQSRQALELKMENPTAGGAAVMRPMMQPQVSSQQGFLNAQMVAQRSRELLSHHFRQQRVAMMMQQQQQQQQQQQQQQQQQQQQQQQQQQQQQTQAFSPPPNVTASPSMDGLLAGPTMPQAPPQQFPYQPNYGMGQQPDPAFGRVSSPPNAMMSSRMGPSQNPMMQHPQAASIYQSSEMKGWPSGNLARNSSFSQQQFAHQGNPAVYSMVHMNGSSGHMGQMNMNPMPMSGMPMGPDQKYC
Peroxisome proliferator-activated receptor gamma/Nuclear receptor coactivator 2, sequence (P37231 whole entry): as the sequence (P37231 whole entry) above
Peroxisome proliferator-activated receptor gamma/Nuclear receptor coactivator 2, sequence (Q15596 whole entry, further chain): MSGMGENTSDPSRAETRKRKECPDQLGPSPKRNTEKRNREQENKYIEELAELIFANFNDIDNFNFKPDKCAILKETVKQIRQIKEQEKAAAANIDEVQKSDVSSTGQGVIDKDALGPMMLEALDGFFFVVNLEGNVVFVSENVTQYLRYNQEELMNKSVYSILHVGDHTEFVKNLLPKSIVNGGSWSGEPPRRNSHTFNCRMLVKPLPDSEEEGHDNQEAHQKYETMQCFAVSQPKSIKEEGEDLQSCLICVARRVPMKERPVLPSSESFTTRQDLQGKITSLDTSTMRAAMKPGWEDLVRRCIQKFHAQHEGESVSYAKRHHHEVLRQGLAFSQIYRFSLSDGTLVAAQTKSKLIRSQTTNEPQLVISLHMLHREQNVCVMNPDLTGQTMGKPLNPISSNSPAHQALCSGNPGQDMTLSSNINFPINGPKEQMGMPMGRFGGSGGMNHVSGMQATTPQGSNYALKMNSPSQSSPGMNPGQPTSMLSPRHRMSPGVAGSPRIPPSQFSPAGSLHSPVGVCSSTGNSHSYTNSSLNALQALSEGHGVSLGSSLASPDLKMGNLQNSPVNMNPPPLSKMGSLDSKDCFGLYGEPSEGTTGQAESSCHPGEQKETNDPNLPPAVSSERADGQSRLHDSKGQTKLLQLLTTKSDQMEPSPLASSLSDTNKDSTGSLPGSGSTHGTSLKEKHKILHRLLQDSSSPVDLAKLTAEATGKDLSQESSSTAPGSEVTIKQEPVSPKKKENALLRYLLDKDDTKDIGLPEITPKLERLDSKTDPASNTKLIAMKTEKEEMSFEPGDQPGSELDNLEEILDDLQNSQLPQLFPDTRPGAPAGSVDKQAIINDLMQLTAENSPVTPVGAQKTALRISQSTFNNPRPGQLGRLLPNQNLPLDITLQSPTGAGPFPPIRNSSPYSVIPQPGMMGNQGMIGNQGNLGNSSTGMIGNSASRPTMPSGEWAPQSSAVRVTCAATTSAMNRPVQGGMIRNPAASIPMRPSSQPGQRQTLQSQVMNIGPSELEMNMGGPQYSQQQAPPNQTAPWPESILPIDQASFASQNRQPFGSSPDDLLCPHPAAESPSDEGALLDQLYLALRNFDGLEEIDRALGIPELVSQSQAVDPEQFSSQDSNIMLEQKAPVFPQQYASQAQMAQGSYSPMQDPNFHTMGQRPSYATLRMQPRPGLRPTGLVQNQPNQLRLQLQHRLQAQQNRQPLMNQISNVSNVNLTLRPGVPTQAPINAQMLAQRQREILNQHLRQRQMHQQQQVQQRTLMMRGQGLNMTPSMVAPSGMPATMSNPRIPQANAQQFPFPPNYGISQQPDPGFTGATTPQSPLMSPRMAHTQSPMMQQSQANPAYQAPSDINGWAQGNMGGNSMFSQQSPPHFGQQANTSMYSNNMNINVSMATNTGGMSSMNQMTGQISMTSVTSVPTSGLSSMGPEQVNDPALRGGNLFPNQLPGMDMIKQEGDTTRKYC
Paired box protein Pax-8, sequence (Q06710 whole entry): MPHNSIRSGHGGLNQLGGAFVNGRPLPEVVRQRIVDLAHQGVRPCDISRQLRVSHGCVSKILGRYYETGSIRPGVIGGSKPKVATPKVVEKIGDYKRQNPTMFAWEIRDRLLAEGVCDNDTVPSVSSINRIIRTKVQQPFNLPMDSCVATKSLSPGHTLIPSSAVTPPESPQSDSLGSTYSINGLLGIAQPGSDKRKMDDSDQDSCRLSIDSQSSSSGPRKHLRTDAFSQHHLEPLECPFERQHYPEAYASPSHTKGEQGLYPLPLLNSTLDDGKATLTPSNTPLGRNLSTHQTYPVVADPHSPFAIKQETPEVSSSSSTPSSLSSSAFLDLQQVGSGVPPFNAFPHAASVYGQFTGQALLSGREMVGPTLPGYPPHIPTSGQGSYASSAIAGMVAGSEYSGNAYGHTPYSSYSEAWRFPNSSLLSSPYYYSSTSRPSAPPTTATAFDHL
Serine/threonine-protein phosphatase PP1-alpha catalytic subunit, sequence (P62136 whole entry): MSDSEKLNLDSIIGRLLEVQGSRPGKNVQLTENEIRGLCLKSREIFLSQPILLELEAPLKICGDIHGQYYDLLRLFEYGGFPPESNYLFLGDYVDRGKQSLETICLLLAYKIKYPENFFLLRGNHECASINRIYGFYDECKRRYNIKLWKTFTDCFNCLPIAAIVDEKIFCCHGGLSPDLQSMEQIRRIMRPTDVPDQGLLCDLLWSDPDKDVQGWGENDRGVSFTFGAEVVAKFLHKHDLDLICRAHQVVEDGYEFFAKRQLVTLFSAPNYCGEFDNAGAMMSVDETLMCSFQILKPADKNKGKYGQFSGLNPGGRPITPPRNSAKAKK
NAD-dependent protein deacylase sirtuin-5, mitochondrial, sequence (Q9NXA8 whole entry): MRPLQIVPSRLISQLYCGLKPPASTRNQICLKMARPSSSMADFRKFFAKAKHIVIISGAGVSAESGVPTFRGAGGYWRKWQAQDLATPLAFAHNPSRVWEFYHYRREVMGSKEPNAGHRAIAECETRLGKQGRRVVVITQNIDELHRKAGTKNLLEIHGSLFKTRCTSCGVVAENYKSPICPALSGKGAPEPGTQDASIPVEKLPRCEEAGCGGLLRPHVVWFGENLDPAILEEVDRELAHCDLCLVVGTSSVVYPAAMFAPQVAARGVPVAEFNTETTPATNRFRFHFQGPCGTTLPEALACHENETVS

Cc1ccc(NCc2nnc(SCc3ccc(C#N)cc3)n2Cc2ccco2)c(C)c1
EC50 [1]: > 120 µM (not active) | EC50 [2]: > 120 µM (not active) | EC50 [3]: > 120 µM (not active) | IC50 [4]: > 100 µM (active)

COc1ccc(CN(C(=O)c2ccco2)c2ccc(C)c(C)c2)cc1
AC50 [5]: 24.7 µM (active)

CO[C@@H]1CN(C)C(=O)c2ccc(NC(=O)c3ccc4c(c3)OCO4)cc2OC[C@@H](C)N(Cc2ccc3c(c2)OCO3)C[C@H]1C
AC50 [6]: 4.99 µM (active) | AC50 [7]: 1.73 µM (active) | AC50 [8]: 1.11 µM (active) | AC50 [9]: 0.279 µM (active) | AC50 [10]: 1.92 µM (active) | AC50 [11]: 1.17 µM (active)

c1ccc(-c2nccc(-c3ccc(-n4cnc5ccccc54)cc3)n2)nc1
IC50 [12]: 4 µM (active) | CC50 [13]: > 40 µM (active) | IC50 [14]: 57.6 µM (not active) | IC50 [15]: 4.65 µM (active) | AC50 [16]: 22.4 µM (inconclusive)

O=C(Nc1nnc(-c2ccco2)s1)C1CCN(S(=O)(=O)c2ccc(Cl)cc2)CC1
EC50 [17]: 56.6 µM (inactive) | IC50 [18]: > 50 µM (not active) | EC50 [19]: > 79.4 µM (not active) | EC50 [20]: 31.4 µM (not active)

Cc1cc(N(CCCl)CCCl)ccc1C=NNC(=O)c1cccnc1
CC50 [21]: 20 µM (active)

CC1CC(=O)NN=C1c1ccc(NCC(C)(C)NCC(O)COc2cc(Cl)ccc2C#N)cc1 (stereo unspecified) [OBERADILOL]
IC50 [22]: 15.2 µM (inactive) | IC50 [23]: > 33.3 µM (inactive)

Clc1ccc(C(Cn2ccnc2)OCc2c(Cl)cccc2Cl)c(Cl)c1 (stereo unspecified) [ISOCONAZOLE]
IC50 [24]: 2.6 µM (active) | IC50 [25]: 4.01 µM (active) | IC50 [26]: 1.59 µM (active) | IC50 [27]: 0.886 µM (active) | IC50 [28]: > 40 µM (inactive) | IC50 [29]: 1.82 µM (active) | IC50 [30]: 5 µM (inactive) | IC50 [31]: 2.36 µM (active) | IC50 [32]: 1.4 µM (active) | IC50 [33]: > 40 µM (inactive)

COc1ccc(S(=O)(=O)Nc2ccc3c(c2)CC(=O)N([C@@H](C)CO)C[C@H](C)[C@@H](CN(C)Cc2ccc(C(F)(F)F)cc2)O3)cc1
AC50 [34]: 3.67 µM (active) | AC50 [35]: 6.21 µM (active) | AC50 [36]: 20 µM (active) | AC50 [37]: 49.1 µM (active) | AC50 [38]: 21.7 µM (active) | AC50 [39]: 59.7 µM (active) | AC50 [40]: > 70 µM (inactive) | AC50 [41]: 31.3 µM (active)
